In publication PMC4249762 (Nature cell biology, 2014):

How the values were obtained:
Format in all cases: biochemical
cathepsin S = cathepsin S (Homo sapiens, UniProt P25774); test: fluorimetric hydrolysis of Z-Leu-Arg-AMC by purified enzyme, pH […]
cathepsin B = cathepsin B (Homo sapiens, UniProt P07858); test: enzyme selectivity assay with peptide substrate
mouse cathepsin S = mouse cathepsin S (Mus musculus, UniProt O70370); test: fluorimetric hydrolysis of Z-Leu-Arg-AMC by purified enzyme, pH […]

Chain of cathepsin S (P25774 115-331): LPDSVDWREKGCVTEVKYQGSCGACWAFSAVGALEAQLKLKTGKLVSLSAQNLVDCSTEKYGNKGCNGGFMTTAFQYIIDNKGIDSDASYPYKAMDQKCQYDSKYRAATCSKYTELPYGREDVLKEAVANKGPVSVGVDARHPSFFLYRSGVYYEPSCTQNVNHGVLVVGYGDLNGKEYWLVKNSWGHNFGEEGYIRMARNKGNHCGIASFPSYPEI

In the case of VBY-999, the Ki (cathepsin S) is reported as 0.29 nM, the Ki (cathepsin B) is reported as 700 nM and the Ki (mouse cathepsin S) is reported as 0.69 nM.
